Measured values from patent publication US20240094229A1, “CRISPR-CAS /TRANSCRIPTION FACTOR-BASED COMPETITION ASSAY FOR DETECTION OF MOLECULAR ANALYTES” (Arizona Board of Regents on Behalf of Arizona State …, priority 2022, published 2024).
Several values for one entry are separate records, joined by “and”; a condition that tells them apart may be missing. Equal entries are not always repeated. Structures can show the parent of a compound that is named as a salt.

What was measured:
Cas12a = experiment: Toxicity study for DMSO on Cas12a activation; type: biochemical, Lachnospiraceae bacterium; settings: 0.03% DMSO
Procedure: The toxicity of solvents on Cas12a activation was tested by titrating in DMSO and monitoring the fluorescence output over two hours. A more significant decrease in activation was observed above 1% DMSO.

TetR [1] = biological target: T1, TetR (Escherichia coli, UniProt P04483); experiment: TetR biosensor, Cas12a cleavage reaction with fluorescence readout, detection of aTc and Doxy; type: biochemical
T1 construct: His tag; made in house; host or cells: E. coli BL21 Star (DE3)
T1 sequence (P04483 whole entry): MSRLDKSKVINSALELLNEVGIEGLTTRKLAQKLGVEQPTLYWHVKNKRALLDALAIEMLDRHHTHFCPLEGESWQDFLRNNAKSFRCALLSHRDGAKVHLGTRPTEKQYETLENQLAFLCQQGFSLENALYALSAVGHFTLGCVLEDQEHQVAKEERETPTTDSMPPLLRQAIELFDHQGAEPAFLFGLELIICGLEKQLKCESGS
Procedure: (§1) Target and nontarget strands (NTS) were annealed at a 1:2 ratio in 1× TAE+12.5 mM Mg^2+ for 5 minutes at 95° C., then snap cooled. To form the DNA/TF complex, 100 nM dsTarget complexes were incubated with 10 μM corresponding transcription factors (unless otherwise stated) for 15 minutes at 37° C. in incubation buffer (40 mM Tris-HCl 8 mM MgCl2, 20 mM NaCl, pH 8). Small molecules were added next, following the same incubation procedure. Prior to addition, small molecules were suspended in water, DMSO or ethanol.
(§2) To monitor small molecule detection, 2 μl of the DNA/TF or DNA/TF/SM mixture were added to 10 μl total Cas12a cleavage reaction. […] Cleavage reactions were then immediately added to a microplate such as a Corning 384-well Black Flat Bottom Plates and read on a SynergyNeo2 Biotek fluorescence plate reader. Fluorescence measurements were taken with 487 nm excitation, 528 nm emission from the bottom of the plate for 2 hours. Fluorescence curves show raw fluorescence images unless otherwise stated.
(§3) Dose response curves were fit on OriginLab graphing software using equation 1. A1 is the minimum asymptote, A2 is the maximum asymptote, X is the log of a given dosage, and p is the hill slope. The center of the curve is equal to Log x0, so the half response or EC 50=10^Logx0.
The limit of detection for the biosensor was tested by introducing a range of small molecules from 4 nM to 40 μM using a 50:1 TetR dimer/dsDNA ratio (FIGS. 3E and F). […] The dose response curve of the biosensor was further assessed using the EC 50 value, which represents the concentration of a drug or analyte needed to reach a half maximum output signal based on a protein-analyte interaction.
Detection limits were also considered using the standard definition of LOD which considers LOD to be equal to the fluorescence of the blank sample plus three times the standard deviation (Table 7 and Table 8). The detection limit was determined using the equation (39):
Here, Sbl is equal to the mean of the SM negative samples and kSbl is the number of standard deviations of the negative sample added. For the Doxy experiments, 8 replicates were run and k=3. […] The detection limit (bolded) was then determined as the lowest concentration corresponding to a fluorescence signal great than Sm (the mean of small molecule negative samples+3× the standard deviation).

TetR [2] = biological target: T1, TetR; experiment: TetR biosensor, lateral flow readout; type: biochemical; settings: for second (test) band on lateral flow strip: TetR biosensor, 20-nt gRNA, 30 minutes cleavage
Procedure: (§4) DNA/TF/small molecule samples were incubated and added to Cas12a reactions containing 106 nM Cas12a, 100 nM gRNA, and 200 nM FAM-[…]-Biotin (SEQ ID NO: 38) or 5′FAM-TTTT(internal T-Biotin)TTTTT-BHQ1 (SEQ ID NO: 38) reporter (IDT). The Cas12a concentration was increased to speed up the reaction time. Samples were incubated for 30 minutes at 37° C. on a thermocycler block. The 10 μl samples were added directly to the dipstick, HybriDetect Universal Lateral Flow Assays from Milenia Biotec (MGHD1) and placed in 100 μl of LF running buffer containing 50% PEG 800. PEG was used to slow capillary flow down, giving reporter strands more time to interact with gold nanoparticle-antibody conjugates before flowing down the assay. This provided cleaner negative results. After 2 minutes, dipsticks were removed and imaged using a cellphone camera.
The trans-cleavage capabilities of Cas12a can cleave any single-stranded DNA in the system, enabling a variety of chemical modifications to be used in the single-stranded reporter. This feature allows for implementation of a visible paper-based lateral flow readout system using reporters with FAM and biotin modifications on either end (19, 21-26). When paired with a lateral flow assay, the fully intact reporter binds to the first line (control line) along with an attached gold nanoparticle/antibody complex, and can be visualized, as shown in FIG. 10. When Cas12a enzyme is active, the reporter is cleaved and the portion containing the gold nanoparticle flows down the assay and can be visualized by the formation of the second band. Thus, the presence of two bands is used to indicate the presence of the target small molecule.
Next, the lateral flow readout was tested by introducing aTc, Doxy, and IPTG to the TetR biosensor. The samples were incubated with Cas12a cleavage mixture containing the 20-nt gRNA. […] Thus, the lateral flow assay can provide a visual readout mechanism for the biosensor, and the assay remains small-molecule specific.
To ensure the biosensor could provide adequate sensitivity, limit of detection experiments were repeated using TetR for detecting aTc and Doxy on the lateral flow assays.

MphR = MphR biosensor, lateral flow readout for erythromycin; type: biochemical; settings: 15 minutes of cleavage
Procedure: as §4, with “Samples were incubated for 30 minutes at 37° C. on a thermocycler block.” left out
The robustness of the lateral flow readout scheme was further tested using the TF MphR to detect the antibiotic erythromycin. […] A closer look at the mean pixel intensity of the bands for the assays for 1, 0.5, 0.25, 0.05 μM and no SM confirm a decrease below 1 μM but show a readable signal in the ˜100 nM range (FIG. 14B). Lateral flow readout was also tested using the LacI-IPTG biosensor. A higher ratio between the IPTG+ and − samples were seen even with high concentrations of Lad, but a discernible difference in SM+ samples was still visualized (FIG. 15).

CymR = biological target: T2, CymR (Pseudomonas putida, UniProt O33453, A171V/S110G); type: biochemical; settings: CymR biosensor, slope of kinetic curves
T2 construct: His tag; made in house
T2 sequence (O33453 whole entry S110G/A171V): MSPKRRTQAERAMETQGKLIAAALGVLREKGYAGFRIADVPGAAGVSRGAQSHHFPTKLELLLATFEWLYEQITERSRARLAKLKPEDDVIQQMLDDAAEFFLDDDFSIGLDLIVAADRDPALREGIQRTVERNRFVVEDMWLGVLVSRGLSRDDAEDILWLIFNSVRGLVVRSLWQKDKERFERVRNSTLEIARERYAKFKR
Procedure: as §1, §2, §3

[3] = EC 50, 10 μM TetR, 50:1 TetR dimer/dsDNA ratio, small molecule 4 nM to 40 μM
[4] = EC:50, 5 nM dsDNA, 500 nM TF (TetR), 24 nt gRNA, 1 h
[5] = EC:50, 50 nM dsDNA, 5 μM TF (TetR), 20 nt gRNA, 30 minutes of cleavage
[6] = EC:50, 50 nM dsDNA, 5 μM TF (TetR), 24 nt gRNA, 1 h
[7] = EC:50, 100 nM dsDNA, 2 μM TF (TetR), 1 h
[8] = EC:50, 100 nM dsDNA, 10 μM TF (TetR), 1 h, 50-fold TetR dimer:DNA
[9] = EC:50, 100 nM dsDNA, 20 μM TF (TetR), 1 h
[10] = 10 μM TetR, 50:1 TetR dimer/dsDNA ratio

| SMILES | EC50 (TetR [1]; [3]) | EC50 (TetR [1]; [4]) | EC50 (TetR [1]; [5]) | EC50 (TetR [1]; [6]) | EC50 (TetR [1]; [7]) | EC50 (TetR [1]; [8]) | EC50 (TetR [1]; [9]) | EC50 (TetR [2]) | second (test) band on lateral flow strip (TetR [2]) | also measured |
| --- | --- | --- | --- | --- | --- | --- | --- | --- | --- | --- |
| C[S+](C)[O-] [DMSO] |  |  |  |  |  |  |  |  |  | effects on Cas12a cleavage at experimental levels (Cas12a): not detrimental |
| C[C@H]1c2cccc(O)c2C(=O)C2=C(O)[C@]3(O)C(=O)C(C(N)=O)=C(O)[C@@H](N(C)C)[C@@H]3[C@@H](O)[C@@H]21 [Doxy, doxycycline] | 766 nM | 87 nM and 88 nM | 430 nM | 1590 nM | 110 nM | 950 nM | 4000 nM and 4220 nM | 27 nM |  |  |
| CC[C@H]1OC(=O)[C@H](C)[C@@H](O[C@H]2C[C@@](C)(OC)[C@@H](O)[C@H](C)O2)[C@H](C)[C@@H](O[C@@H]2O[C@H](C)C[C@H](N(C)C)[C@H]2O)[C@](C)(O)C[C@@H](C)C(=O)[C@H](C)[C@@H](O)[C@]1(C)O [Erythromycin] |  |  |  |  |  |  |  |  |  | concentration range with readable signal (mean pixel intensity) (MphR): ~100 nM |
| CC(C)S[C@@H]1O[C@H](CO)[C@H](O)[C@H](O)[C@H]1O [IPTG, isopropyl β-D-1-thiogalactopyranoside] |  |  |  |  |  |  |  |  | little to no banding |  |
| Cc1c2c(c(O)c3c(O)cccc13)C(=O)[C@]1(O)C(=O)C(C(N)=O)=C(O)[C@@H](N(C)C)[C@@H]1C2 [aTc, anhydrotetracycline-HCl] | 4230 nM | 50 nM | 1510 nM | 1770 nM | 840 nM | 4420 nM | 10600 nM | 380 nM | strong second band | concentration at complete loss of signal (TetR [1]; [10]): 0.4 µM; concentration giving maximum (near maximum) fluorescence output (TetR [1]; [10]): 10 µM; Fluorescence Mean (TetR [1]; 20 nt gRNA, Concentration 0.005 (unit not given)): 21303.25; Fluorescence Mean (TetR [1]; 20 nt gRNA, Concentration 0.01 (unit not given)): 21302; Fluorescence Mean (TetR [1]; 20 nt gRNA, Concentration 0.05 (unit not given)): 24918.25; Fluorescence Mean (TetR [1]; 20 nt gRNA, Concentration 0.1 (unit not given)): 32806; Fluorescence Mean (TetR [1]; 20 nt gRNA, Concentration 1 (unit not given)): 40622.5; Fluorescence Mean (TetR [1]; 24 nt gRNA, Concentration 0.005 (unit not given)): 9199.5; Fluorescence Mean (TetR [1]; 24 nt gRNA, Concentration 0.01 (unit not given)): 8795; Fluorescence Mean (TetR [1]; 24 nt gRNA, Concentration 0.05 (unit not given)): 12129.5; Fluorescence Mean (TetR [1]; 24 nt gRNA, Concentration 0.1 (unit not given)): 20059; Fluorescence Mean (TetR [1]; 24 nt gRNA, Concentration 1 (unit not given)): 30309.5; EC50 (TetR [1]; EC:50, 5 nM dsDNA, 500 nM TF (TetR), 20 nt gRNA, 30 minutes of cleavage): 51 nM; concentration showing a discernible signal (TetR [2]; lateral flow, 30 minutes of cleavage): 400 nM |
| CC(C)c1ccc(C(=O)O)cc1 [cuminic acid] |  |  |  |  |  |  |  |  |  | linear region of cleavage rate vs SM concentration (calibration curve) (CymR): ≤ 50 µM |
